Experiments:
[1] = method code SF-AS, from DOI: 10.1248/cpb.32.4994, PMID: 6534548
[2] = method code SF-AQ, from DOI: 10.1248/cpb.32.4994, PMID: 6534548
[3] = method code AS, from DOI: 10.1248/cpb.32.4994, PMID: 6534548

SMILES	logP [1]	also measured
O=C(Cc1ccccc1)Nc1cccc(Cl)c1	3.61	
COc1ccc(NC(=O)Cc2ccccc2)cc1	2.49	
CCc1cccc(N(C(C)=O)c2ccccc2)c1		logP [2]: 3.47
O=C(Cc1ccccc1)Nc1cccc(I)c1	3.91	
Nc1cccc(NC(=O)Cc2ccccc2)c1	1.59	
N#Cc1cccc(NC(=O)Cc2ccccc2)c1	2.75	
CC(=O)c1cccc(NC(=O)Cc2ccccc2)c1	2.62	
CNc1cccc(NC(=O)Cc2ccccc2)c1	2.31	
CC(=O)Oc1cccc(NC(=O)Cc2ccccc2)c1	2.37	
O=C(Cc1ccccc1)Nc1ccc(Br)cc1		logP [3]: 3.7
Cc1cccc(NC(=O)Cc2ccccc2)c1	3.14	
CC(=O)N(c1ccccc1)c1ccc(C)cc1	3.05	
O=C(Cc1ccccc1)Nc1ccc(F)cc1	2.86	
COc1cccc(NC(=O)Cc2ccccc2)c1	2.86	

The next lines start with results.

logP [1]	SMILES	also measured
3.54	O=C(Cc1ccccc1)Nc1ccc(Cl)cc1	
2.22	O=C(Cc1ccccc1)Nc1cccc(O)c1	
2.59	CCNc1cccc(NC(=O)Cc2ccccc2)c1	
2.75	CC(=O)c1ccc(NC(=O)Cc2ccccc2)cc1	
2.32	CS(=O)(=O)Oc1cccc(NC(=O)Cc2ccccc2)c1	
1.82	O=C(Cc1ccccc1)Nc1ccc(O)cc1	
3.77	O=C(Cc1ccccc1)Nc1cccc(Br)c1	
2.93	O=C(Cc1ccccc1)Nc1cccc([N+](=O)[O-])c1	
3.1	O=C(Cc1ccccc1)Nc1cccc(F)c1	

Source: the SangsterLogP compilation
